# Laboratory results published in patent publication US20230192661A1, “1, 4, 5, 6-TETRAHYDROPYRIMIDINE-2-AMINE DERIVATIVE” (UBE Corporation, priority 2020, published 2023).
# How the values were obtained:
# αvβ6 = target: T1, αvβ6 (Homo sapiens, UniProt P06756+P18564); assay: αvβ6 cell adhesion inhibition test (HT-29 cells on recombinant human LAP protein); type: cell-based; settings: recombinant human LAP coating, 200 μM MnCl2, 1 hour, read-out: IC50 (rate of inhibition of cell adhesion, αvβ6)
# T1 construct: endogenous in cells; host or cells: HT-29 cells
# Protocol: Test Example 2 was performed by partially modifying the method of Henderson et al. (Nat Med., 19 (12), 1617-24, 2013). In Test Example 2, the same reagents as in Test Example 1 were used unless otherwise specified.
# Recombinant human LAP protein (manufactured by R&D Systems, Inc., 246-LP-025) was prepared at […] with PBS, dispensed at 100 μL/well to a 96-well plate, and left standing overnight. The plate was washed with HBSS, then subjected to blocking treatment with DMEM containing 1% BSA, and used as a coated plate in the adhesion test.
# HT-29 cells cultured in McCoy's 5A medium (manufactured by Thermo Fisher Scientific, Inc., 16600) containing 10% FBS and 1% penicillin/streptomycin/amphotericin B were recovered and suspended in DMEM containing 0.1% BSA and 200 μM MnCl2 to prepare a cell suspension. A test compound was added thereto.
# The cell suspension of 5×10^5 cells/mL containing the test compound was added at 100 μL/well to the coated plate and left standing for 1 hour in a 5% CO2 incubator (37° C.). One hour later, the supernatant was removed, and the plate was washed with HBSS containing 200 μM MnCl2. The cells that adhered to each well in the plate were stained with crystal violet, and the cells were lysed, followed by absorbance measurement. Inhibition without substrate coating was defined as 100% inhibition, and inhibition when DMSO was added instead of the test compound was defined as 0% inhibition. The rate of inhibition of cell adhesion by the test compound was calculated according to the following expression.
# Rate of inhibition of cell adhesion (%)=[1−{(Absorbance in the case of adding the test compound)−(Absorbance without substrate coating)}/{(Absorbance in the case of adding DMS)−(Absorbance without substrate coating)}]×100
# An IC50 value was calculated from the rate of inhibition of cell adhesion by the test compound. A: IC50<3 nM, B: 3 nM≤IC50<10 nM, C: 10 nM≤IC50<30 nM, D: 30 nM≤IC50<100 nM, or E: IC50≥100 nM.
# [1] = Transcellular transport test using Caco2 cell; type: in vitro ADME; settings: human, Caco-2; Caco2 monolayer, A-to-B, 10 μM compound, pH 7.4, 90 minutes
# Protocol: Caco2 cells (purchased from ATCC) were cultured in DMEM medium (Thermo Fisher Scientific, Inc., 11965) containing 10% FBS (Thermo Fisher Scientific, Inc., 10082) and 1% penicillin/streptomycin/amphotericin B (Thermo Fisher Scientific, Inc., 15240). A transcellular transport test was carried out in accordance with MultiScreen Caco2 Drug Transport Assembly in a 96-well system (Application Note AN1727EN, MultiScreen Caco-2 Assay System, Merck) by partially modifying it. The Caco2 cells were inoculated at a cell density of 4×10^4 cells/well onto a micropore polycarbonate insert of a 96-well plate (Merck, Millcell-96 culture insert plate 0.4 μm pore size, well membrane area=0.11 cm^2, PSHT004S5) and cultured for 20 to 22 days, and the resulting monolayer was used in the transcellular transport test. The medium of the inoculated cells was replaced with a fresh one every 3 to 4 days.
# Apical-to-basolateral (A-to-B) transport in the Caco2 cell monolayer membrane was performed by using HBSS (Thermo Fisher Scientific, Inc., 14025) medium (pH=7.4) containing 20 mM HEPES (Thermo Fisher Scientific, Inc., 15630), and adding HEPES-containing HBSS medium containing 10 μM compound (a 10 mM solution of the compound in DMSO was added at a 1000-fold dilution; final DMSO concentration: 0.1%) at 75 μL/well to the apical side and HEPES-containing HBSS medium supplemented with no compound at 250 μL/well to the basolateral side, followed by culture at 37° C. for 90 minutes. After culture, a 100 μL aliquot was collected from the basolateral side, and the concentration of a permeated compound was measured by LC-MS/MS under measurement conditions mentioned later. Papp (apparent permeability; cm/sec) was calculated from the determined concentration. Papp was determined according to the expression given below by calculating the slope (dA/dt; nmol/sec) of a straight line drawn between two points 0 minutes and zero amount of the compound in a graph plotted with an assay time (90 min) on the abscissa against the amount of the compound in the solution on the permeated side on the ordinate. As for an assay concentration, the concentration in the compound in the HEPES-containing HBSS medium containing the added compound was measured by UV-HPLC under measurement conditions mentioned later.
# Papp (cm/sec)=C0×S×(dA/dt)
# C0: assay concentration, S: plate membrane area=0.11 cm^2
# T1 sequence (P06756 31-889 limits assumed): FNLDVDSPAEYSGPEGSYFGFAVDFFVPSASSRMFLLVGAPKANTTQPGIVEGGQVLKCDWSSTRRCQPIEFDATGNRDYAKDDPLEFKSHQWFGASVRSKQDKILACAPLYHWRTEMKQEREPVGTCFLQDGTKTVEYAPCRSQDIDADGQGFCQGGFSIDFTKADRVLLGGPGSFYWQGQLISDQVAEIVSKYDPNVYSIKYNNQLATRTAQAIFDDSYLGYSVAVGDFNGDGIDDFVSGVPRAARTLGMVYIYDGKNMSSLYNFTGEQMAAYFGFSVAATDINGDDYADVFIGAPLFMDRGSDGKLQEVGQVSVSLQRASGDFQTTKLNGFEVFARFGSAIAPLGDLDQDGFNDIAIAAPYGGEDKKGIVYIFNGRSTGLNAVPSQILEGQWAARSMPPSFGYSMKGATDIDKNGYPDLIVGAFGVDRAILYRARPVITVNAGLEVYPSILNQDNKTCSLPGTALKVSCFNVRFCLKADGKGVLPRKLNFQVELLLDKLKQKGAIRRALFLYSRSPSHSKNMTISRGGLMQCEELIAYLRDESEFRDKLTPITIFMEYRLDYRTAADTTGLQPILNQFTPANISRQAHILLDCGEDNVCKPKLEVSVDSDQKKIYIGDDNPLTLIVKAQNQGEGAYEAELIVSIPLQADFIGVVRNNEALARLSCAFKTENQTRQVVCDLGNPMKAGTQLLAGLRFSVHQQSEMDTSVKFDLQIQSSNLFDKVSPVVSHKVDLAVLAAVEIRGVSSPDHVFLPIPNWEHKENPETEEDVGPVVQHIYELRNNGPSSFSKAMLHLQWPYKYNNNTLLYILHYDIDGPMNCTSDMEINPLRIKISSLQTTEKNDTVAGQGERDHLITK
# T1 sequence (P06756 891-1048 limits assumed): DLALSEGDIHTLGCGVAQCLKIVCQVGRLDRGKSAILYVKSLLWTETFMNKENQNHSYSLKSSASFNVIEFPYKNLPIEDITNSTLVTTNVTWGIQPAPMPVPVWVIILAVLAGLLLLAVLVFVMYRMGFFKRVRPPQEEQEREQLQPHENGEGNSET
# T1 sequence (P18564 22-788): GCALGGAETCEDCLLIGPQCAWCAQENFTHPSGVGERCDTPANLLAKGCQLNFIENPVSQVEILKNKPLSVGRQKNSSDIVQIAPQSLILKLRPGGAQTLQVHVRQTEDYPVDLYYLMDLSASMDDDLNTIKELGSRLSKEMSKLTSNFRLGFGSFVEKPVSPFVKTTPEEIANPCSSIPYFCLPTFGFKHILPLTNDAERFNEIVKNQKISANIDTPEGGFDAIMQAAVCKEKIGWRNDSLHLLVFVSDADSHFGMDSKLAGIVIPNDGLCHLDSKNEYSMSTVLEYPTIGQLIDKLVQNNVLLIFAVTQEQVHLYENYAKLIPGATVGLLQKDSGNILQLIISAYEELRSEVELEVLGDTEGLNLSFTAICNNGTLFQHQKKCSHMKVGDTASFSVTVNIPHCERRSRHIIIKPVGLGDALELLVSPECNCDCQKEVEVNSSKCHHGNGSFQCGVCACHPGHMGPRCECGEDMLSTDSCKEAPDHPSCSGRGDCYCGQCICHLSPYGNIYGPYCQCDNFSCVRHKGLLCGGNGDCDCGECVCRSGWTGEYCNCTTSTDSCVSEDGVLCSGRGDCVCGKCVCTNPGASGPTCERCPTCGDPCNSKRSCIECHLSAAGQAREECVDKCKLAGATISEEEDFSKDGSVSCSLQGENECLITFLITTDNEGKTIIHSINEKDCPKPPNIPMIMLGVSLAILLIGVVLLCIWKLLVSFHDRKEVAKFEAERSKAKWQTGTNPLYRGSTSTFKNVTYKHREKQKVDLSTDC
SMILES,IC50 (αvβ6),"Papp A→B at 90 min, 10 μM [1]"
"O=C(O)C[C@H](NC(=O)CNC(=O)c1cc(NC2=NCC(F)CN2)c2cn[nH]c2c1)c1cc(OC(F)(F)F)ccc1F (stereo partly drawn) [Example 33-(b), (3S)-3-(2-(4-((5-fluoro-1,4,5,6-tetrahydropyrimidin-2-yl)amino)-1H-indazole-6-carboxamido)acetamido)-3-(2-fluoro-5-(trifluoromethoxy)phenyl)propanoic acid]",< 3 nM,> 1 ×10⁻⁶ cm/s
"O=C(O)C[C@H](NC(=O)CNC(=O)c1cc(NC2=NCC(F)CN2)c2cn[nH]c2c1)c1ccc(F)c(OC(F)(F)F)c1 (stereo partly drawn) [Example 34-(b), (3S)-3-(2-(4-((5-fluoro-1,4,5,6-tetrahydropyrimidin-2-yl)amino)-1H-indazole-6-carboxamido)acetamido)-3-(4-fluoro-3-(trifluoromethoxy)phenyl)propanoic acid]",< 3 nM,> 1 ×10⁻⁶ cm/s
"O=C(O)C[C@H](NC(=O)CNC(=O)c1cc(NC2=NCC(F)CN2)c2cn[nH]c2c1)c1cccc(C(F)(F)F)c1 (stereo partly drawn) [Example 35-(b), (3S)-3-(2-(4-((5-fluoro-1,4,5,6-tetrahydropyrimidin-2-yl)amino)-1H-indazole-6-carboxamido)acetamido)-3-(3-(trifluoromethyl)phenyl)propanoic acid]",< 3 nM,> 1 ×10⁻⁶ cm/s
"O=C(O)C[C@H](NC(=O)CNC(=O)c1cc(NC2=NCC(F)CN2)c2cn[nH]c2c1)c1cccc(OC(F)(F)F)c1 (stereo partly drawn) [Example 36-(b), (3S)-3-(2-(4-((5-fluoro-1,4,5,6-tetrahydropyrimidin-2-yl)amino)-1H-indazole-6-carboxamido)acetamido)-3-(3-(trifluoromethoxy)phenyl)propanoic acid]",< 3 nM,> 1 ×10⁻⁶ cm/s
"O=C(O)C[C@H](NC(=O)CNC(=O)c1cc(NC2=NCC(F)CN2)c2cn[nH]c2c1)c1cccc(OC(F)F)c1 (stereo partly drawn) [Example 37-(b), (3S)-3-(3-(difluoromethoxy)phenyl)-3-(2-(4-((5-fluoro-1,4,5,6-tetrahydropyrimidin-2-yl)amino)-1H-indazole-6-carboxamido)acetamido)propanoic acid]",< 3 nM,> 1 ×10⁻⁶ cm/s
"O=C(O)C[C@H](NC(=O)CNC(=O)c1cc(NC2=NCC(F)CN2)c2cn[nH]c2c1)c1cccc(C(F)F)c1 (stereo partly drawn) [Example 38-(b), (3S)-3-(3-(difluoromethyl)phenyl)-3-(2-(4-((5-fluoro-1,4,5,6-tetrahydropyrimidin-2-yl)amino)-1H-indazole-6-carboxamido)acetamido)propanoic acid]",< 3 nM,> 1 ×10⁻⁶ cm/s
"O=C(O)C[C@H](NC(=O)CNC(=O)c1cc(NC2=NCC(F)CN2)c2cn[nH]c2c1)c1cccc(C2CC2)c1 (stereo partly drawn) [Example 39-(b), (3S)-3-(3-cyclopropylphenyl)-3-(2-(4-((5-fluoro-1,4,5,6-tetrahydropyrimidin-2-yl)amino)-1H-indazole-6-carboxamido)acetamido)propanoic acid]",< 3 nM,> 1 ×10⁻⁶ cm/s
"O=C(O)C[C@H](NC(=O)CNC(=O)c1cc(NC2=NCC(F)CN2)c2cn[nH]c2c1)c1cccc(OC2CC2)c1 (stereo partly drawn) [Example 40-(b), (3S)-3-(3-cyclopropoxyphenyl)-3-(2-(4-((5-fluoro-1,4,5,6-tetrahydropyrimidin-2-yl)amino)-1H-indazole-6-carboxamido)acetamido)propanoic acid]",< 3 nM,> 1 ×10⁻⁶ cm/s
"O=C(O)C[C@H](NC(=O)CNC(=O)c1cc(NC2=NCC(F)CN2)c2cn[nH]c2c1)c1cccc(Cl)c1 (stereo partly drawn) [Example 41-(b), (3S)-3-(3-chlorophenyl)-3-(2-(4-((5-fluoro-1,4,5,6-tetrahydropyrimidin-2-yl)amino)-1H-indazole-6-carboxamido)acetamido)propanoic acid]",< 3 nM,> 1 ×10⁻⁶ cm/s
"O=C(O)C[C@H](NC(=O)CNC(=O)c1cc(NC2=NCC(F)CN2)c2cn[nH]c2c1)c1cccc(Br)c1 (stereo partly drawn) [Example 42-(b), (3S)-3-(3-bromophenyl)-3-(2-(4-((5-fluoro-1,4,5,6-tetrahydropyrimidin-2-yl)amino)-1H-indazole-6-carboxamido)acetamido)propanoic acid]",< 3 nM,> 1 ×10⁻⁶ cm/s
"O=C(O)C[C@H](NC(=O)CNC(=O)c1cc(NC2=NCC(F)CN2)c2cn[nH]c2c1)c1cccc(-n2cccn2)c1 (stereo partly drawn) [Example 43-(b), (3S)-3-(3-(1H-pyrazol-1-yl)phenyl)-3-(2-(4-((5-fluoro-1,4,5,6-tetrahydropyrimidin-2-yl)amino)-1H-indazole-6-carboxamido)acetamido)propanoic acid]",< 3 nM,> 1 ×10⁻⁶ cm/s
"Cc1cc(C)n(-c2cccc([C@H](CC(=O)O)NC(=O)CNC(=O)c3cc(NC4=NCC(F)CN4)c4cn[nH]c4c3)c2)n1 (stereo partly drawn) [Example 44-(b), (3S)-3-(3-(3,5-dimethyl-1H-pyrazol-1-yl)phenyl)-3-(2-(4-((5-fluoro-1,4,5,6-tetrahydropyrimidin-2-yl)amino)-1H-indazole-6-carboxamido)acetamido)propanoic acid]",< 3 nM,0.5 to 1 ×10⁻⁶ cm/s
"O=C(O)C[C@H](NC(=O)CNC(=O)c1cc(NC2=NCC(F)CN2)c2cn[nH]c2c1)c1cccc(N2CCOCC2)c1 (stereo partly drawn) [Example 45-(b), (3S)-3-(2-(4-((5-fluoro-1,4,5,6-tetrahydropyrimidin-2-yl)amino)-1H-indazole-6-carboxamido)acetamido)-3-(3-morpholinophenyl)propanoic acid]",3 to 10 nM,0.5 to 1 ×10⁻⁶ cm/s
"O=C(O)C[C@H](NC(=O)CNC(=O)c1cc(NC2=NCC(F)CN2)c2cn[nH]c2c1)c1ccc(OC(F)F)cc1 (stereo partly drawn) [Example 46-(b), (3S)-3-(4-(difluoromethoxy)phenyl)-3-(2-(4-((5-fluoro-1,4,5,6-tetrahydropyrimidin-2-yl)amino)-1H-indazole-6-carboxamido)acetamido)propanoic acid]",3 to 10 nM,> 1 ×10⁻⁶ cm/s
"O=C(O)C[C@H](NC(=O)CNC(=O)c1cc(NC2=NCC(F)CN2)c2cn[nH]c2c1)c1ccc(C(F)(F)F)cc1 (stereo partly drawn) [Example 47-(b), (3S)-3-(2-(4-((5-fluoro-1,4,5,6-tetrahydropyrimidin-2-yl)amino)-1H-indazole-6-carboxamido)acetamido)-3-(4-(trifluoromethyl)phenyl)propanoic acid]",3 to 10 nM,> 1 ×10⁻⁶ cm/s
"O=C(O)C[C@H](NC(=O)CNC(=O)c1cc(NC2=NCC(F)CN2)c2c(F)n[nH]c2c1)c1cc(Cl)cc(C(F)(F)F)c1 (stereo partly drawn) [Example 48-(b), (3S)-3-(3-chloro-5-(trifluoromethyl)phenyl)-3-(2-(3-fluoro-4-((5-fluoro-1,4,5,6-tetrahydropyrimidin-2-yl)amino)-1H-indazole-6-carboxamido)acetamido) propanoic acid]",< 3 nM,> 1 ×10⁻⁶ cm/s
